In US20140087003A1, “METHOD FOR TREATING VENOMOUS BITES AND STINGS” (priority 2012, published 2014):

Test: pH of the solution
Format: physicochemical

Structure (SMILES) | pH of strong basic solutions used as high pH controls
[Na+].[OH-] [sodium hydroxide] | 14
[K+].[OH-] [potassium hydroxide] | 14
